According to patent US8741836B2, “Polypeptides” (Novo Nordisk A/S, priority 2011, dated 2014):
Starred links: 1 amine or outer side, 2 acyl side, 3 side chain; linkers in the order of their positions; H or OH if unused. Positions of bridges follow the written chain, without caps; N, C: chain ends. Residues, ends and D or L forms follow the SMILES beside them. *: point of attachment. C20 diacid = O=C(O)CCCCCCCCCCCCCCCCCCC(=O)*; C18 diacid = O=C(O)CCCCCCCCCCCCCCCCC(=O)*; γGlu = O=C(O)[C@H](CCC(=O)[*:2])N[*:1]

Assay: Assay (III) ThT fibrillation assay for physical stability
Assay type: physicochemical
Conditions: pH 4.0, ThT fibrillation assay
Text: Assay (III)—ThT Fibrillation Assays for the Assessment of Physical Stability of Protein formulations Low physical stability of a polypeptide may lead to amyloid fibril formation, which is observed as well-ordered, thread-like macromolecular structures in the sample eventually resulting in gel formation. This has traditionally been measured by visual inspection of the sample. However, that kind of measurement is very subjective and depending on the observer. Therefore, the application of a small molecule indicator probe is much more advantageous. Thioflavin T (ThT) is such a probe and has a distinct fluorescence signature when binding to fibrils [Naiki et al. (1989) Anal. Biochem. 177, 244-249; LeVine (1999) Methods. Enzymol. […], 274-284]. The time course for fibril formation can be described by a sigmoidal curve with the following expression [Nielsen et al. (2001) Biochemistry 40, 6036-6046]: [formula] Here, F is the ThT fluorescence at the time t. The constant t0 is the time needed to reach 50% of maximum fluorescence. […] Few of those intermediates nucleate to form a template onto which further intermediates may assembly and the fibrillation proceeds. The lag-time corresponds to the interval in which the critical mass of nucleus is built up and the apparent rate constant is the rate with which the fibril itself is formed. Sample Preparation Samples were prepared freshly before each assay. Each sample composition is described in each example. The pH of the sample was adjusted to the desired value using appropriate amounts of concentrated NaOH and HClO4 or HCl. Thioflavin T was added to the samples from a stock solution in H2O to a final concentration of 1 μM. Sample aliquots of 200 μl were placed in a 96 well microtiter plate (Packard OptiPlate™-96, white polystyrene). Usually, four or eight replica of each sample (corresponding to one test condition) were placed in one column of wells. The plate was sealed with Scotch Pad (Qiagen). Incubation and Fluorescence Measurement Incubation at given temperature, shaking and measurement of the ThT fluorescence emission were done in a Fluoroskan Ascent FL fluorescence platereader or Varioskan platereader (Thermo Labsystems). The temperature was adjusted to 37° C. The orbital shaking was adjusted to 960 rpm with an amplitude of 1 mm in all the presented data. Fluorescence measurement was done using excitation through a 444 nm filter and measurement of emission through a 485 nm filter. Each run was initiated by incubating the plate at the assay temperature for 10 min. The plate was measured every 20 minutes for a desired period of time. Between each measurement, the plate was shaken and heated as described. Data Handling The measurement points were saved in Microsoft Excel format for further processing and curve drawing and fitting was performed using GraphPad Prism. The background emission from ThT in the absence of fibrils was negligible. The data points are typically a mean of four or eight samples and shown with standard deviation error bars. Only data obtained in the same experiment (i.e. samples on the same plate) are presented in the same graph ensuring a relative measure of fibrillation between experiments. The data set may be fitted to Eq. (1). However, since full sigmodial curves in this case are not always achieved during the measurement time, the degree of fibrillation is expressed as ThT fluorescence tabulated as the mean of the samples and shown with the standard deviation at various time points. Measurement of Initial and Final Concentrations The polypeptide concentration in each of the tested formulations were measured both before application in the ThT fibrillation assay (“Initial”) and after completion of the ThT fibrillation (“After ThT assay”). Concentrations were determined by reverse HPLC methods using a pramlintide standard as a reference. Before measurement after completion 150 μl was collected from each of the replica and transferred to an Eppendorf tube. […]

## CC[C@H](C)[C@H](NC(=O)[C@@H]1CCCN1C(=O)CNC(=O)[C@H](Cc1ccccc1)NC(=O)[C@H](CC(N)=O)NC(=O)[C@H](CC(N)=O)NC(=O)[C@H](CO)NC(=O)[C@H](CO)NC(=O)[C@H](Cc1c[nH]cn1)NC(=O)[C@H](CCCNC(=N)N)NC(=O)[C@H](CC(C)C)NC(=O)[C@H](Cc1ccccc1)NC(=O)[C@H](CCC(=O)O)NC(=O)[C@H](C)NC(=O)[C@H](CC(C)C)NC(=O)[C@H](CCCNC(=N)N)NC(=O)[C@H](CCC(N)=O)NC(=O)[C@@H](NC(=O)[C@H](C)NC(=O)[C@@H]1CSSC[C@H](NC(=O)[C@H](CCCCN)NC(=O)CC[C@H](NC(=O)CCCCCCCCCCCCCCCCC(=O)O)C(=O)O)C(=O)N[C@@H](CC(N)=O)C(=O)N[C@@H]([C@@H](C)O)C(=O)N[C@@H](C)C(=O)N[C@@H]([C@@H](C)O)C(=O)N1)[C@@H](C)O)C(=O)N[C@@H](CC(C)C)C(=O)N1CCC[C@H]1C(=O)N1CCC[C@H]1C(=O)N[C@H](C(=O)N[C@@H](CC(N)=O)C(=O)N[C@H](C(=O)NCC(=O)N[C@@H](CO)C(=O)N[C@@H](Cc1c[nH]cn1)C(=O)N[C@H](C(=O)N[C@@H](Cc1ccc(O)cc1)C(N)=O)[C@@H](C)O)C(C)C)[C@@H](C)O [Example 61, N-alpha-[(S)-4-Carboxy-4-(17-carboxyheptadecanoylamino)butyryl]-[Glu14,Arg17,His35]-pramlintide] ({C18 diacid-γGlu}-KCNTATCATQRLAEFLRHSSNNFGPILPPTNVGSHTY-NH2; disulfide 2-7)
  ThT pH 4.0 lag time: >45 h

## CC[C@H](C)[C@H](NC(=O)[C@@H]1CCCN1C(=O)CNC(=O)[C@H](Cc1ccccc1)NC(=O)[C@H](CC(N)=O)NC(=O)[C@H](CC(N)=O)NC(=O)[C@H](CO)NC(=O)[C@H](CO)NC(=O)[C@H](Cc1c[nH]cn1)NC(=O)[C@H](CCCNC(=N)N)NC(=O)[C@H](CC(C)C)NC(=O)[C@H](Cc1ccccc1)NC(=O)[C@H](CCC(=O)O)NC(=O)[C@H](C)NC(=O)[C@H](CC(C)C)NC(=O)[C@H](CCCNC(=N)N)NC(=O)[C@H](CCC(N)=O)NC(=O)[C@@H](NC(=O)[C@H](C)NC(=O)[C@@H]1CSSC[C@H](NC(=O)[C@H](CCCCN)NC(=O)[C@H](CCC(=O)O)NC(=O)CC[C@H](NC(=O)CCCCCCCCCCCCCCCCC(=O)O)C(=O)O)C(=O)N[C@@H](CC(N)=O)C(=O)N[C@@H]([C@@H](C)O)C(=O)N[C@@H](C)C(=O)N[C@@H]([C@@H](C)O)C(=O)N1)[C@@H](C)O)C(=O)N[C@@H](CC(C)C)C(=O)N1CCC[C@H]1C(=O)N1CCC[C@H]1C(=O)N[C@H](C(=O)N[C@@H](CC(N)=O)C(=O)N[C@H](C(=O)NCC(=O)N[C@@H](CO)C(=O)N[C@@H](Cc1c[nH]cn1)C(=O)N[C@H](C(=O)N[C@@H](Cc1ccc(O)cc1)C(N)=O)[C@@H](C)O)C(C)C)[C@@H](C)O [Example 62, N-alpha-[(S)-4-Carboxy-4-(17-carboxyheptadecanoylamino)butyryl]-Glu-[Glu14,Arg17,His35]-pramlintide] ({C18 diacid-γGlu}-EKCNTATCATQRLAEFLRHSSNNFGPILPPTNVGSHTY-NH2; disulfide 3-8 (inferred); C-terminus assumed)
  ThT pH 4.0 lag time: 30 h

## CC(C)C[C@H](NC(=O)[C@H](CCCNC(=N)N)NC(=O)[C@H](CCC(N)=O)NC(=O)[C@@H](NC(=O)[C@H](C)NC(=O)[C@@H]1CSSC[C@H](NC(=O)[C@H](CCCCN)NC(=O)CC[C@H](NC(=O)CCCCCCCCCCCCCCCCCCC(=O)O)C(=O)O)C(=O)N[C@@H](CC(N)=O)C(=O)N[C@@H]([C@@H](C)O)C(=O)N[C@@H](C)C(=O)N[C@@H]([C@@H](C)O)C(=O)N1)[C@@H](C)O)C(=O)N[C@@H](C)C(=O)N[C@@H](CCC(=O)O)C(=O)N[C@@H](Cc1ccccc1)C(=O)N[C@@H](CC(C)C)C(=O)N[C@@H](CCCNC(=N)N)C(=O)N[C@@H](Cc1c[nH]cn1)C(=O)N[C@@H](CO)C(=O)N[C@@H](CO)C(=O)N[C@@H](CC(N)=O)C(=O)N[C@@H](CC(N)=O)C(=O)N[C@@H](Cc1ccccc1)C(=O)NCC(=O)N[C@@H](C)C(=O)N1CCC[C@H]1C(=O)N[C@@H](CC(C)C)C(=O)N[C@@H](CO)C(=O)N[C@@H](CO)C(=O)N[C@H](C(=O)N[C@@H](CC(N)=O)C(=O)N[C@H](C(=O)NCC(=O)N[C@@H](CO)C(=O)N[C@@H](Cc1c[nH]cn1)C(=O)N[C@H](C(=O)N[C@@H](Cc1ccc(O)cc1)C(N)=O)[C@@H](C)O)C(C)C)[C@@H](C)O [Example 65, N-alpha-[(S)-4-Carboxy-4-(19-carboxynonadecanoylamino)butyryl]-[Glu14,Arg17,Ala25,Pro26,Ser28,Ser29,His35]-pramlintide] ({C20 diacid-γGlu}-KCNTATCATQRLAEFLRHSSNNFGAPLSSTNVGSHTY-NH2; disulfide 2-7)
  ThT pH 4.0 lag time: >45 h

## CC[C@H](C)[C@H](NC(=O)[C@@H]1CCCN1C(=O)CNC(=O)[C@H](Cc1ccccc1)NC(=O)[C@H](CC(N)=O)NC(=O)[C@H](CC(N)=O)NC(=O)[C@H](CO)NC(=O)[C@H](CO)NC(=O)[C@H](Cc1c[nH]cn1)NC(=O)[C@H](Cc1c[nH]cn1)NC(=O)[C@H](CC(C)C)NC(=O)[C@H](Cc1ccccc1)NC(=O)[C@H](CCC(=O)O)NC(=O)[C@H](C)NC(=O)[C@H](CC(C)C)NC(=O)[C@H](CCCNC(=N)N)NC(=O)[C@H](CCC(N)=O)NC(=O)[C@@H](NC(=O)[C@H](C)NC(=O)[C@@H]1CSSC[C@H](NC(=O)[C@H](CCCCN)NC(=O)[C@H](Cc2c[nH]cn2)NC(=O)CC[C@H](NC(=O)CCCCCCCCCCCCCCCCCCC(=O)O)C(=O)O)C(=O)N[C@@H](CC(N)=O)C(=O)N[C@@H]([C@@H](C)O)C(=O)N[C@@H](C)C(=O)N[C@@H]([C@@H](C)O)C(=O)N1)[C@@H](C)O)C(=O)N[C@@H](CC(C)C)C(=O)N1CCC[C@H]1C(=O)N1CCC[C@H]1C(=O)N[C@H](C(=O)N[C@@H](CC(N)=O)C(=O)N[C@H](C(=O)NCC(=O)N[C@@H](CO)C(=O)N[C@@H](Cc1c[nH]cn1)C(=O)N[C@H](C(=O)N[C@@H](Cc1ccc(O)cc1)C(N)=O)[C@@H](C)O)C(C)C)[C@@H](C)O [Example 66, N-alpha-[(S)-4-Carboxy-4-(19-carboxynonadecanoylamino)butyryl]-His-[Glu14,His17,His35]-pramlintide] ({C20 diacid-γGlu}-HKCNTATCATQRLAEFLHHSSNNFGPILPPTNVGSHTY-NH2; disulfide 3-8)
  ThT pH 4.0 lag time: >45 h

## CC[C@H](C)[C@H](NC(=O)[C@@H]1CCCN1C(=O)CNC(=O)[C@H](Cc1ccccc1)NC(=O)[C@H](CC(N)=O)NC(=O)[C@H](CC(N)=O)NC(=O)[C@H](CO)NC(=O)[C@H](CO)NC(=O)[C@H](Cc1c[nH]cn1)NC(=O)[C@H](Cc1c[nH]cn1)NC(=O)[C@H](CC(C)C)NC(=O)[C@H](Cc1ccccc1)NC(=O)[C@H](CCC(=O)O)NC(=O)[C@H](C)NC(=O)[C@H](CC(C)C)NC(=O)[C@H](CCCNC(=N)N)NC(=O)[C@H](CCC(N)=O)NC(=O)[C@@H](NC(=O)[C@H](C)NC(=O)[C@@H]1CSSC[C@H](NC(=O)[C@H](CCCCN)NC(=O)[C@H](Cc2c[nH]cn2)NC(=O)[C@H](Cc2c[nH]cn2)NC(=O)CC[C@H](NC(=O)CCCCCCCCCCCCCCCCCCC(=O)O)C(=O)O)C(=O)N[C@@H](CC(N)=O)C(=O)N[C@@H]([C@@H](C)O)C(=O)N[C@@H](C)C(=O)N[C@@H]([C@@H](C)O)C(=O)N1)[C@@H](C)O)C(=O)N[C@@H](CC(C)C)C(=O)N1CCC[C@H]1C(=O)N1CCC[C@H]1C(=O)N[C@H](C(=O)N[C@@H](CC(N)=O)C(=O)N[C@H](C(=O)NCC(=O)N[C@@H](CO)C(=O)N[C@@H](Cc1c[nH]cn1)C(=O)N[C@H](C(=O)N[C@@H](Cc1ccc(O)cc1)C(N)=O)[C@@H](C)O)C(C)C)[C@@H](C)O [Example 67, N-alpha-[(S)-4-Carboxy-4-(19-carboxynonadecanoylamino)butyryl]-His-His-[Glu14,His17,His35]-pramlintide] ({C20 diacid-γGlu}-HHKCNTATCATQRLAEFLHHSSNNFGPILPPTNVGSHTY-NH2; disulfide 4-9 (inferred))
  ThT pH 4.0 lag time: >45 h
